Reference: ChEMBL document CHEMBL4476874, “Compounds for the modulation of myc activity” (2018)

How the values were obtained:
[1] = target: Myc proto-oncogene protein (Homo sapiens, UniProt P01106); assay: Inhibition of human c-Myc assessed as reduction in c-Myc/Max/Ebox DNA complex formation using pre-formed complex of c-Myc and biotinylated DNA containing single Ebox-sequence followed by compound addition and further addition of his6-tagged c-Max and incubated for 2 hrs by AlphaScreen assay
NCI-H2171 = assay: Antiproliferative activity against human NCI-H2171 cells after 72 hrs by ATPlite assay; format: functional, cell-based; conditions: NCI-H2171, 72 h

Chain of Myc proto-oncogene protein (P01106 whole entry): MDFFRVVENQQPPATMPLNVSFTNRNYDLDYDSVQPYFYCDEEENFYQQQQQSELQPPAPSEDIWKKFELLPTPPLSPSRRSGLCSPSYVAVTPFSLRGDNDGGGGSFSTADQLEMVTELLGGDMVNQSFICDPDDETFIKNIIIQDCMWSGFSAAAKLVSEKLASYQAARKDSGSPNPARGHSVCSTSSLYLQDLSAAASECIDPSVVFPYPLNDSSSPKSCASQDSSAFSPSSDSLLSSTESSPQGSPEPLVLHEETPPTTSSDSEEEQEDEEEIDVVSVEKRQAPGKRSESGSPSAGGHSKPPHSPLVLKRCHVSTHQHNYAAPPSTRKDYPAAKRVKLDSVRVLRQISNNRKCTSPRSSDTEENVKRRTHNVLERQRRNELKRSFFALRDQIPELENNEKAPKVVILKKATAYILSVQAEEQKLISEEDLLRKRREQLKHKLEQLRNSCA

SMILES	IC50 [1] [nM]	IC50 (NCI-H2171) [nM]
COCCNCCC(=O)Nc1sc2c(c1-c1nc3cc(-c4cncnc4)ccc3s1)CCNC2	< 300	300 to 1000
COCCNCCC(=O)Nc1sc2c(c1-c1nc3ccc(-c4cnc(N)nc4)cc3s1)CCNC2	300 to 1000	< 300
CSc1ccc2sc(-c3c(NC(=O)CCNC(C)C)sc4c3CCNC4)nc2c1	300 to 1000	< 300
CC(C)NCCC(=O)Nc1sc2c(c1-c1nc3cc(SC4CCCC4)ccc3s1)CCNC2	> 10000	< 300
COCCNCCC(=O)Nc1sc2c(c1-c1nc3ccc(-c4cccc(NS(C)(=O)=O)c4)cc3s1)CCNC2	300 to 1000	< 300
COCCNCCC(=O)Nc1sc2c(c1-c1nc3cc(-c4cccc(S(N)(=O)=O)c4)ccc3s1)CCNC2	300 to 1000	300 to 1000
COCCNCCC(=O)Nc1sc2c(c1-c1nc3cc(-c4ccnc(C)c4)ccc3s1)CCNC2	300 to 1000	< 300
COCCNCCC(=O)Nc1sc2c(c1-c1nc3cc(-c4cnccc4C)ccc3s1)CCNC2	1000 to 10000	< 300
O=C(CCNC1CC1)Nc1sc2c(c1-c1nc3ccccc3s1)CCNC2	300 to 1000	< 300
CCN(CC)CCC(=O)Nc1sc2c(c1-c1nc3ccccc3s1)CCNC2	300 to 1000	< 300
COCCNCCC(=O)Nc1sc2c(c1-c1nc3cc(-c4ccc(C)nc4)ccc3s1)CCNC2	300 to 1000	< 300
COCCNCCC(=O)Nc1sc2c(c1-c1nc3cc(-c4ccc(N5CCN(C)CC5)cc4)ccc3s1)CCNC2	300 to 1000	< 300
CCc1cccc2sc(-c3c(NC(=O)CCNCCOC)sc4c3CCNC4)nc12	< 300	< 300
COCCNCCC(=O)Nc1sc2c(c1-c1nc3ccc(-c4ccnc(NC(C)=O)c4)cc3s1)CCNC2	300 to 1000	< 300
COCCNCCC(=O)Nc1sc2c(c1-c1nc3ccc(-c4ccc5nc(N)ncc5c4)cc3s1)CCNC2	> 10000	< 300
COCCNCCC(=O)Nc1sc2c(c1-c1nc3cc(-c4ccnc(C(F)(F)F)c4)ccc3s1)CCNC2	300 to 1000	< 300
CCOc1ncccc1-c1ccc2sc(-c3c(NC(=O)CCNCCOC)sc4c3CCNC4)nc2c1	1000 to 10000	300 to 1000
CC(C)NCCC(=O)Nc1sc2c(c1-c1nc3cc(S(C)(=O)=O)ccc3s1)CCNC2	< 300	> 10000
COCCNCCC(=O)Nc1sc2c(c1-c1nc3cc(-c4cccc(NS(C)(=O)=O)c4)ccc3s1)CCNC2	1000 to 10000	< 300
CC(C)NCCC(=O)Nc1sc2c(c1-c1nc3cc(S(=O)(=O)c4ccccc4)ccc3s1)CCNC2	300 to 1000	< 300
COCCNCCC(=O)Nc1sc2c(c1-c1nc3c(N4CC(O)C4)cccc3s1)CCNC2	< 300	< 300

SMILES	IC50 [1] [nM]	IC50 (NCI-H2171) [nM]
CC(=O)Nc1sc2c(c1-c1nc3ccc(-c4cnn(C)c4)cc3s1)CCNC2	300 to 1000	300 to 1000
COCCNCCC(=O)Nc1sc2c(c1-c1nc3cc(-c4ccnn4C)ccc3s1)CCNC2	300 to 1000	< 300
COCCNCCC(=O)Nc1sc2c(c1-c1nc3c(N4CCOCC4)cccc3s1)CCNC2	> 10000	300 to 1000
CC(=O)Nc1sc2c(c1-c1nc3cc(-c4ccncc4)ccc3s1)CCNC2	300 to 1000	< 300
COCCNCCC(=O)Nc1sc2c(c1-c1nc3cc(-c4ccc(O)nc4)ccc3s1)CCNC2	< 300	300 to 1000
COCCNCCC(=O)Nc1sc2c(c1-c1nc3cc(-c4ccc(N5CCOCC5)nc4)ccc3s1)CCNC2	300 to 1000	300 to 1000
COCCNCCC(=O)Nc1sc2c(c1-c1nc3ccc(-c4ccnc(N)c4)cc3s1)CCNC2	300 to 1000	< 300
O=C(C[C@H]1CCCN1)Nc1sc2c(c1-c1nc3ccccc3s1)CCNC2	300 to 1000	< 300
CC(C)NCCC(=O)Nc1sc2c(c1-c1nc3cc(Sc4ccccn4)ccc3s1)CCNC2	1000 to 10000	< 300
COCCNCCC(=O)Nc1sc2c(c1-c1nc3cc(OC4CCOCC4)ccc3s1)CCNC2	300 to 1000	< 300
COCCNCCC(=O)Nc1sc2c(c1-c1nc3cc(-c4cncc(C#N)c4)ccc3s1)CCNC2	300 to 1000	300 to 1000
COCCNCCC(=O)Nc1sc2c(c1-c1nc3ccc(-c4cnn(C)c4C)cc3s1)CCNC2	300 to 1000	< 300
CC(C)NCCC(=O)Nc1sc2c(c1-c1nc3cc(Sc4ccccc4)ccc3s1)CCNC2	> 10000	300 to 1000
COCCNCCC(=O)Nc1sc2c(c1-c1nc3c(Nc4ccccc4)cccc3s1)CCNC2	> 10000	300 to 1000
COCCNCCC(=O)Nc1sc2c(c1-c1nc3ccc(-c4cncc(N)c4)cc3s1)CCNC2	300 to 1000	< 300
CC(C)NCCC(=O)Nc1sc2c(c1-c1nc3cc(O)ccc3s1)CCNC2	< 300	300 to 1000
COCCNCCC(=O)Nc1sc2c(c1-c1nc3cc(-c4cnc(N)c(C(F)(F)F)c4)ccc3s1)CCNC2	1000 to 10000	< 300
CC(=O)Nc1cccc2sc(-c3c(NC(=O)CCNC(C)C)sc4c3CCNC4)nc12	300 to 1000	< 300
COCCNCCC(=O)Nc1sc2c(c1-c1nc3cc(-c4cncc(OCCOC)c4)ccc3s1)CCNC2	300 to 1000	< 300
CSc1cccc2sc(-c3c(NC(=O)CCNC(C)C)sc4c3CCNC4)nc12	300 to 1000	< 300
COCCNCCC(=O)Nc1sc2c(c1-c1nc3cc(-c4ccc5ncnn5c4)ccc3s1)CCNC2	< 300	< 300

SMILES	IC50 [1] [nM]	IC50 (NCI-H2171) [nM]
COCCNCCC(=O)Nc1sc2c(c1-c1nc3cc(-c4ccc(C(F)(F)F)nc4)ccc3s1)CCNC2	1000 to 10000	< 300
COCCNCCC(=O)Nc1sc2c(c1-c1nc3cc(-c4cncc(C)c4)ccc3s1)CCNC2	300 to 1000	< 300
O=C(CCNC1C2CC1C2)Nc1sc2c(c1-c1nc3ccccc3s1)CCNC2 (stereo unspecified)	1000 to 10000	300 to 1000
COCCNCCC(=O)Nc1sc2c(c1-c1nc3c(NS(C)(=O)=O)cccc3s1)CCNC2	1000 to 10000	< 300
COCCNCCC(=O)Nc1sc2c(c1-c1nc3ccc(-c4cncc(C)c4)cc3s1)CCNC2	1000 to 10000	< 300
COCCNCCC(=O)Nc1sc2c(c1-c1nc3cc(-c4ccc(OC(C)C)nc4)ccc3s1)CCNC2	1000 to 10000	< 300
CC(C)NCCC(=O)Nc1sc2c(c1-c1nc3cc(C4=CCN(S(=O)(=O)N(C)C)CC4)ccc3s1)CCNC2	300 to 1000	< 300
Cc1cc(-c2ccc3sc(-c4c(NC(=O)CCNC(C)C)sc5c4CCNC5)nc3c2)cc(C)n1	> 10000	< 300
CC(C)NCCC(=O)Nc1sc2c(c1-c1nc3cc(S(=O)(=O)C4CCCC4)ccc3s1)CCNC2	300 to 1000	< 300
CC(C)NCCC(=O)Nc1sc2c(c1-c1nc3cc(C4CC4)ccc3s1)CCNC2	300 to 1000	< 300
COCCNCCC(=O)Nc1sc2c(c1-c1nc3ccccc3s1)CCN[C@@H]2C	< 300	< 300
COCCNCCC(=O)Nc1sc2c(c1-c1nc3c(-n4ccnc4C)cccc3s1)CCNC2	300 to 1000	< 300
CC(=O)Nc1sc2c(c1-c1nc3cc(-c4cnn(C)c4)ccc3s1)CCNC2	300 to 1000	< 300
O=C(C[C@@H]1CCCN1)Nc1sc2c(c1-c1nc3ccccc3s1)CCNC2	1000 to 10000	< 300
COCCNCCC(=O)Nc1sc2c(c1-c1nc3cc(-c4c[nH]nc4C)ccc3s1)CCNC2	300 to 1000	300 to 1000
O=C(CCN1CCOCC1)Nc1sc2c(c1-c1nc3ccccc3s1)CCNC2	1000 to 10000	300 to 1000
COCCNCCC(=O)Nc1sc2c(c1-c1nc3cc(-c4ccc(OC)nc4)ccc3s1)CCNC2	1000 to 10000	< 300
COCCNCCC(=O)Nc1sc2c(c1-c1nc3ccc(-c4ccc(F)nc4)cc3s1)CCNC2	300 to 1000	< 300
COCCNCCC(=O)Nc1sc2c(c1-c1nc3cc(-c4cc(C)[nH]n4)ccc3s1)CCNC2	300 to 1000	< 300
COCCNCCC(=O)Nc1sc2c(c1-c1nc3cc(-c4cccc(S(C)(=O)=O)c4)ccc3s1)CCNC2	300 to 1000	< 300
COCCNCCC(=O)Nc1sc2c(c1-c1nc3ccc(-c4ccnn4C)cc3s1)CCNC2	1000 to 10000	< 300
